The values that follow come from patent publication US11622970B2, “BCL-2 inhibitors and their use as pharmaceuticals” (PRELUDE THERAPEUTICS INCORPORATED, priority 2020, dated 2023).

The structures appear in SMILES notation.

BCL-2 recombinant protein, sequence (P10415 whole entry): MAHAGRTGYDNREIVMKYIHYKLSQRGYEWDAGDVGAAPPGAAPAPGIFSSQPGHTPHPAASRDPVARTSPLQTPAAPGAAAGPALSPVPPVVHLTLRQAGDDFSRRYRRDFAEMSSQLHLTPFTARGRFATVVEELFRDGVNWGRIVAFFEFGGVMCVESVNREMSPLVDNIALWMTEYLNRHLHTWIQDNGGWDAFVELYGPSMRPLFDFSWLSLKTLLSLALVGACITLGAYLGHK

The target in the first assay is BCL-2 recombinant protein (Homo sapiens, UniProt P10415). Description: Cell free Bcl-2:Bak affinity assay (Bcl-2 Bak), HTRF competition of FAM-Bak peptide. Particulars: 1 μM compound, 4 nM BCL-2 recombinant protein, 100 nM FAM-Bak, read-out: potency (% inhibition at 1 μM). It counts as binding. As to the method:
Biological Assays: Cell Free Bcl-2:Bak Affinity Assay (Bcl-2 Bak)
The assay is based on the competition of fluorescently labeled peptide binding to BCL-2 and the binding is monitored by HTRF signals between anti-GST-Tb and FAM-peptide using GST-Tag BCL proteins. Testing compounds were dissolved in DMSO at 10 mM and tested in 10-concentration IC50 mode. The compounds of interest in DMSO were added in 3-fold serial dilution to each well containing 4 nM of BCL-2 recombinant protein, 20 mM K Phosphate, pH 7.5, 50 mM NaCl, 1 mM EDTA, 0.005% Triton X-100, by using acoustic technology (Labcyte echo 550), After 10 minutes incubation at room temperature, 100 nM of FAM-Bak was added and incubated for another 10 minutes before addition of Anti-GST-Tb. The plate was then sealed and further incubated at room temperature for 60 minutes in the dark before reading. Percentage of inhibition was calculated by % inhibition=100×(FDMSO−F)/(FDMSO−FPC), in which FDMSO is DMSO control and FPC is a positive control. IC50 values were determined from dose-response curve by fitting the percent inhibition against compound concentration using GraphPad Prism software.
A word on the inhibition: it is the percentage by which the read-out fell short of the control. For `CC1(C)CCC(CN2CCN(c3ccc(S(=O)(=O)NC(=O)c4ccc(OCc5ccccc5)c([N+](=O)[O-])c4)cc3)CC2)=C(c2ccc(Cl)cc2)C1` [Example 36, 4-(benzyloxy)-N-([4-[4-[[2-(4-chlorophenyl)-4,4-dimethylcyclohexen-1-yl]methyl]piperazin-1-yl]phenyl]sulfonyl)-3-nitrobenzamide], the inhibition at 1 µM lay in the range of 50 to 90%. On the same count and under the same terms, next, `Cn1cc(-c2nc(C(=O)NS(=O)(=O)c3ccc(N4CCN(CC5=C(c6ccc(Cl)cc6)CC(C)(C)CC5)CC4)cc3)ccc2F)ccc1=O` [Example 58, N-[4-[4-[[2-(4-Chlorophenyl)-4,4-dimethylcyclohexen-1-yl]methyl]piperazin-1-yl]phenyl]sulfonyl-3-fluoro-1′-methyl-6′-oxo-1′,6′-dihydro-[2,3′-bipyridine]-6-carboxamide]: 50 to 90%. Take `CN1C(=O)CCc2cc(C(=O)NS(=O)(=O)c3ccc(N4CCN(CC5=C(c6ccc(Cl)cc6)CC(C)(C)CC5)CC4)cc3)ccc21` [Example 10, N-([4-[4-[[2-(4-chlorophenyl)-4,4-dimethylcyclohexen-1-yl]methyl]piperazin-1-yl]phenyl]sulfonyl)-1-methyl-2-oxo-1,2,3,4-tetrahydroquinoline-6-carboxamide]: the inhibition at 1 µM was in the range of 50 to 90%. The same measure, in the same setting: next, `CC1(C)CCC(CN2CCN(c3ccc(S(=O)(=O)NC(=O)c4ccc(COc5ccccc5)c([N+](=O)[O-])c4)cc3)CC2)=C(c2ccc(Cl)cc2)C1` [Example 52, N-[4-[4-[[2-(4-chlorophenyl)-4,4-dimethylcyclohexen-1-yl]methyl]piperazin-1-yl]phenyl]sulfonyl-3-nitro-4-(phenoxymethyl)benzamide]: 50 to 90%; `CC1(C)CCC(CN2CCN(c3ccc(S(=O)(=O)NC(=O)c4ccc([N+](=O)[O-])c(Cl)n4)cc3)CC2)=C(c2ccc(Cl)cc2)C1` [Example 2, 6-chloro-N-[4-[4-[[2-(4-chlorophenyl)-4,4-dimethylcyclohexen-1-yl]methyl]piperazin-1-yl]phenyl]sulfonyl-5-nitropyridine-2-carboxamide]: 50 to 90%. As for `CC1(C)CCC(CN2CCN(c3ccc(S(=O)(=O)NC(=O)C4(c5ccc([N+](=O)[O-])cc5)CC4)cc3)CC2)=C(c2ccc(Cl)cc2)C1` [Example 29, N-([4-[4-[[2-(4-chlorophenyl)-4,4-dimethylcyclohexen-1-yl]methyl]piperazin-1-yl]phenyl]sulfonyl)-1-(4-nitrophenyl)cyclopropane-1-carboxamide], the inhibition at 1 µM is below 50%.

Turning to `CC1(C)CCC(CN2CCN(c3ccc(S(=O)(=O)NC(=O)c4ccccn4)cc3)CC2)=C(c2ccc(Cl)cc2)C1` [Example 24, N-([4-[4-[[2-(4-chlorophenyl)-4,4-dimethylcyclohexen-1-yl]methyl]piperazin-1-yl]phenyl]sulfonyl)pyridine-2-carboxamide], the inhibition at 1 µM was 50 to 90%.

With `CC1(C)CCC(CN2CCN(c3ccc(S(=O)(=O)NC(=O)c4cncc([N+](=O)[O-])c4)cc3)CC2)=C(c2ccc(Cl)cc2)C1` [Example 23, N-([4-[4-[[2-(4-chlorophenyl)-4,4-dimethylcyclohexen-1-yl]methyl]piperazin-1-yl]phenyl]sulfonyl)-5-nitropyridine-3-carboxamide], the inhibition at 1 µM is 50 to 90%.

In the case of `CC1(C)CCC(CN2CCN(c3ccc(S(=O)(=O)NC(=O)c4cc(C5CC5)on4)cc3)CC2)=C(c2ccc(Cl)cc2)C1` [Example 12, N-([4-[4-[[2-(4-chlorophenyl)-4,4-dimethylcyclohexen-1-yl]methyl]piperazin-1-yl]phenyl]sulfonyl)-5-cyclopropylisoxazole-3-carboxamide], the inhibition at 1 µM is below 50%.

On to `CC1(C)CCC(CN2CCN(c3ccc(S(=O)(=O)NC(=O)c4cc(-c5ccc(F)cc5)no4)cc3)CC2)=C(c2ccc(Cl)cc2)C1` [Example 25, N-([4-[4-[[2-(4-chlorophenyl)-4,4-dimethylcyclohexen-1-yl]methyl]piperazin-1-yl]phenyl]sulfonyl)-3-(4-fluorophenyl)isoxazole-5-carboxamide], for which the inhibition at 1 µM was 50 to 90%.

For the compound `Cn1ncc2ccc(-c3nc(C(=O)NS(=O)(=O)c4ccc(N5CCN(CC6=C(c7ccc(Cl)cc7)CC(C)(C)CC6)CC5)cc4)ccc3F)cc21` [Example 60, N-[4-[4-[[2-(4-Chlorophenyl)-4,4-dimethylcyclohexen-1-yl]methyl]piperazin-1-yl]phenyl]sulfonyl-5-fluoro-6-(1-methyl-1H-indazol-6-yl)pyridine-2-carboxamide], the inhibition at 1 µM lay in the range of 50 to 90%. Turning to `CC1(C)CCC(CN2CCN(c3ccc(S(=O)(=O)NC(=O)c4cccc(Cl)c4)cc3)CC2)=C(c2ccc(Cl)cc2)C1` [Example 15, 3-chloro-N-([4-[4-[[2-(4-chlorophenyl)-4,4-dimethylcyclohexen-1-yl]methyl]piperazin-1-yl]phenyl]sulfonyl)benzamide], the inhibition at 1 µM is 50 to 90%.

Still in this assay, the particulars now being: 10-concentration IC50 mode, 4 nM BCL-2 recombinant protein, 100 nM FAM-Bak, read-out: potency (IC50).
For orientation: IC50 means the concentration that gives 50% inhibition. As to `CC1(C)CCC(CN2CCN(c3ccc(S(=O)(=O)NC(=O)c4ccc(F)c(Br)n4)c(Oc4cnc5[nH]ccc5c4)c3)CC2)=C(c2ccc(Cl)cc2)C1` [Example 67, N-[4-[4-[[2-(4-chlorophenyl)-4,4-dimethylcyclohexen-1-yl]methyl]piperazin-1-yl]-2-(1H-pyrrolo[2,3-b]pyridin-5-yloxy)phenyl]sulfonyl-6-bromo-5-fluoropyridine-2-carboxamide], the IC50 lay within 10 to 100 nM. As for `CCNc1c([N+](=O)[O-])cc(C(=O)NS(=O)(=O)c2ccc(N3CCN(CC4=C(c5ccc(Cl)cc5)CC(C)(C)CC4)CC3)cc2)c(Cl)c1C` [Example 43, 2-chloro-N-[4-[4-[[2-(4-chlorophenyl)-4,4-dimethylcyclohexen-1-yl]methyl]piperazin-1-yl]phenyl]sulfonyl-4-(ethylamino)-3-methyl-5-nitrobenzamide], the IC50 lay within 100 to 1000 nM. For the compound `CC1(C)CCC(CN2CCN(c3ccc(S(=O)(=O)NC(=O)c4ccc(COc5ccc(Cl)cc5)c(S(C)(=O)=O)c4)c(Oc4cnc5[nH]ccc5c4)c3)CC2)=C(c2ccc(Cl)cc2)C1` [Example 89, 4-[(4-chlorophenoxy)methyl]-N-[4-[4-[[2-(4-chlorophenyl)-4,4-dimethylcyclohexen-1-yl]methyl]piperazin-1-yl]-2-(1H-pyrrolo[2,3-b]pyridin-5-yloxy)phenyl]sulfonyl-3-methylsulfonylbenzamide], the IC50 fell in the range of 100 to 1000 nM. With `CC1(C)CCC(CN2CCN(c3ccc(S(=O)(=O)NC(=O)c4ccc([N+](=O)[O-])c(COc5ccc(Cl)cc5)c4)cc3)CC2)=C(c2ccc(Cl)cc2)C1` [Example 38, N-([4-[4-[[2-(4-chlorophenyl)-4,4-dimethylcyclohexen-1-yl]methyl]piperazin-1-yl]phenyl]sulfonyl)-3-((4-chlorophenoxy)methyl)-4-nitrobenzamide], the IC50 is 10 to 100 nM. Consider `Cc1c(Cl)c(C(=O)NS(=O)(=O)c2ccc(N3CCN(CC4=C(c5ccc(Cl)cc5)CC(C)(C)CC4)CC3)cc2Oc2cnc3[nH]ccc3c2)cc([N+](=O)[O-])c1OCC1CCOCC1` [Example 81, 2-Chloro-N-[4-[4-[[2-(4-chlorophenyl)-4,4-dimethylcyclohexen-1-yl]methyl]piperazin-1-yl]-2-(1H-pyrrolo[2,3-b]pyridin-5-yloxy)phenyl]sulfonyl-3-methyl-5-nitro-4-(oxan-4-ylmethoxy)benzamide], for which the IC50 was below 10 nM. Still for that read-out and setting: next, `Cc1cc(C(=O)NS(=O)(=O)c2ccc(N3CCN(CC4=C(c5ccc(Cl)cc5)CC(C)(C)CC4)CC3)cc2Oc2cnc3[nH]ccc3c2)cc([N+](=O)[O-])c1` [Example 79, N-[4-[4-[[2-(4-chlorophenyl)-4,4-dimethylcyclohexen-1-yl]methyl]piperazin-1-yl]-2-(1H-pyrrolo[2,3-b]pyridin-5-yloxy)phenyl]sulfonyl-3-methyl-5-nitrobenzamide]: 10 to 100 nM; `CC1(C)CCC(CN2CCN(c3ccc(S(=O)(=O)NC(=O)c4ccc(CNC5CCOCC5)c([N+](=O)[O-])c4)c(Oc4cnc5[nH]ccc5c4)c3)CC2)=C(c2ccc(Cl)cc2)C1` [Example 96, N-[4-[4-[[2-(4-chlorophenyl)-4,4-dimethylcyclohexen-1-yl]methyl]piperazin-1-yl]-2-(1H-pyrrolo[2,3-b]pyridin-5-yloxy)phenyl]sulfonyl-3-nitro-4-[(oxan-4-ylamino)methyl]benzamide]: 10 to 100 nM.

Regarding `Cc1c(Cl)c(C(=O)NS(=O)(=O)c2ccc(N3CCN(CC4=C(c5ccc(Cl)cc5)CC(C)(C)CC4)CC3)cc2Oc2cnc3[nH]ccc3c2)cc([N+](=O)[O-])c1OCc1ccc(Cl)cc1` [Example 88, 2-Chloro-N-[4-[4-[[2-(4-chlorophenyl)-4,4-dimethylcyclohexen-1-yl]methyl]piperazin-1-yl]-2-(1H-pyrrolo[2,3-b]pyridin-5-yloxy)phenyl]sulfonyl-4-[(4-chlorophenyl)methoxy]-3-methyl-5-nitrobenzamide], the IC50 is below 10 nM. Consider `CC1(C)CCC(CN2CCN(c3ccc(S(=O)(=O)NC(=O)c4ccc(F)c(COc5ccc(Cl)cc5)c4)cc3)CC2)=C(c2ccc(Cl)cc2)C1` [Example 37, N-([4-[4-[[2-(4-chlorophenyl)-4,4-dimethylcyclohexen-1-yl]methyl]piperazin-1-yl]phenyl]sulfonyl)-3-((4-chlorophenoxy)methyl)-4-fluorobenzamide], for which the IC50 fell in the range of 10 to 100 nM.
